Experimental data: patent publication US20200375987A1, “METALLO-BETA-LACTAMASE INHIBITORS AND METHODS OF USE THEREOF” (priority 2018, published 2020)

How the values were obtained:
[1] = tested on: Escherichia coli expressing NDM-1 (CLB30016); experiment: Antibiotic potentiation activity: synergistic concentration (MITC95) with imipenem; assay type: cell-based; settings: imipenem 1 μg/mL; lowest concentration inhibiting 95% of growth; 35° C., 22-24 hours
Method: (§1) The bacterial strains tested included the clinical strains Escherichia coli expressing NDM-1 (CLB30005, CLB30016), Serratia marcescens expressing IMP-1 (CL5741), and Klebsiella pneumoniae expressing VIM-1 (IHMA599644). Inhibitor activity was measured in the presence and absence of imipenem in a 384-well microplate.
(§2) The clinical strains CLB30016, CL5741 and IHMA599644 were grown on trypticase soy agar containing 5% sheep's blood. The bacteria on agar plates were incubated at 35° C. with humidity overnight. The following day, individual colonies from each clinical strain were picked and resuspended in 5 mL saline to attain an OD600 of 0.14, 0.11, 0.15 and 0.13, for CLB30016, CL5741 and IHMA599644, respectively. These were further diluted 1:100 into 1.1× CAMHB and used to inoculate the test wells as described below.
(§3) Imipenem in 10 mM 3-(N-morpholino)propanesulfonic acid (MOPS, pH 7) was stored in single use aliquots at −80° C. […] On the day of the assay, 4 μl of antibiotic was added to 45 μl of bacteria followed by 1 μl of test compound and mixed by pipetting and with an orbital shaker. The concentration of antibiotic used in the assay was 1 μg/mL. Microplates were covered and incubated at 35° C. for 22 hours to 24 hours. At the end of the incubation, absorbance was determined using a spectrophotometer. The synergistic concentration of MBLI was determined by identifying the lowest concentration of test compound in the presence of a given concentration of antibiotic that was required to inhibit 95% of the growth of the bacteria. The results for Examples 1-209 are reported in Table 1, expressed as the concentration of compound that potentiated the action of antibiotic (imipenem) affecting 95% inhibition of bacterial growth (MITC95).

[2] = tested on: Klebsiella pneumoniae expressing VIM-1 (IHMA599644); experiment: as above; assay type: cell-based; settings: imipenem 1 μg/mL; lowest concentration inhibiting 95% of growth; 35° C., 22-24 hours
Method: as §1, §2, §3

[3] = tested on: Serratia marcescens expressing IMP-1 (CL5741); experiment: as above; assay type: cell-based; settings: imipenem 1 μg/mL; lowest concentration inhibiting 95% of growth; 35° C., 22-24 hours
Method: as §1, §2, §3

[4] = tested on: P. aeruginosa MB9799 (efflux mutant, IMP-1); experiment: Efflux: concentration of MBL inhibitor restoring susceptibility to imipenem (MITC95), efflux− strain; assay type: cell-based, Pseudomonas aeruginosa; settings: imipenem at 2 μg/mL in the presence of a class A, C, D serine β-lactamase inhibitor closely related to relebactam
Source text: (§4) In order to assess the contribution of efflux to lack of whole cell inhibition of metallo-beta-lactamase inhibitors of formula I, tool strains were constructed. The strain background is Pseudomonas aeruginosa PAO1. A wild-type (MB5919) and an isogenic strain in which multiple efflux pumps have been disrupted genetically were used. The MBL IMP-1, obtained from a clinical isolate was introduced into the strain pair by the following process:
(§5) Plasmid DNA (encoding IMP-1) was extracted from CL 5673 (IMP-1, P. aeruginosa clinical strain) by standard techniques. The plasmid DNA was transformed into parental MB5919 (oprD+, efflux+, inducible AmpC) and MB5890 (oprD+, efflux−, inducible AmpC) isogenic strains by electroporation. These transformed strains were plated onto cation-adjusted Muller-Hinton agar plates containing ceftazidime at 32 μg/mL (MB5919) and 16 μg/mL (MB5890) to select for those cells in which the IMP-1-expressing plasmid was introduced successfully, resulting in resistance to ceftazidime. Agarose-gel electrophoresis of PCR product for IMP-1 from the successful transformants was used to compare to control and to the original strain from which the plasmid was obtained, confirming transfer of the IMP-1 gene (data not shown).
(§6) The strain set was then used as a pair to determine the effect of metallo-β-lactamase inhibitors of Formula Ion the MIC of imipenem and/or ceftazidime. A fixed concentration of antibiotic is included in standard microbroth MIC tests, usually at the CLSI breakpoint concentration. A fixed amount of a class A/C beta-lactamase inhibitor is also included to inhibit the resident Pseudomonas AmpC enzyme. A serial titration of the metallo-β-lactamase inhibitor was included and the concentration of metallo-β-lactamase inhibitor which restores susceptibility of the strain to the included antibiotic was recorded. That concentration of metallo-β-lactamase inhibitor was then compared between the two strains to determine the fold difference between the efflux+(MB9798) and efflux−(MB9799) strains, which indicates n the extent to which the MBLi is subject to efflux.

NDM-1 = NDM-1 (Klebsiella pneumoniae, UniProt C7C422); experiment: Enzyme activity: determination of IC50, fluorescence assay with CCF2-FA substrate (NDM-1); assay type: biochemical; settings: 1 pM enzyme, 1.25 μM CCF2-FA, 2 hours at 25° C.; read-out: NDM1 IC50
NDM-1, sequence (C7C422 29-270, looked up, species assumed): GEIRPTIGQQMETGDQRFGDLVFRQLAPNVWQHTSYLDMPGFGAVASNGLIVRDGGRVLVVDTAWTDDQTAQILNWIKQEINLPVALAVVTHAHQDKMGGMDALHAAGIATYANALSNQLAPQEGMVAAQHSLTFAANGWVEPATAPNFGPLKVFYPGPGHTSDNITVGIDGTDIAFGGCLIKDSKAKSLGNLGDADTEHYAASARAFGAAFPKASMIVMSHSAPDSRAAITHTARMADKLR
Method: (§7) The Class B enzyme activities were measured in the presence of the test inhibitor in a fluorescence assay against a commercially available substrate consisting of a cephalosporin core linking 7-hydroxycoumarin to fluorescein (CCF2-FA). The enzyme (NDM-1, IMP-1 or VIM-1) and the substrate were diluted in 100 mM KH2PO4 buffer (pH 7) containing 0.005% Tween-20 and 10 μM ZnSO4. In the assay, the final concentration of enzyme was 1 pM, 2 pM and 30 pM for NDM-1, IMP-1 and VIM-1, respectively, and the final concentration of CCF2-FA was 1.25 μM. The test inhibitor was dissolved in dimethylsulfoxide and diluted 1:50 in the assay, resulting in a final concentration range of 20 μM to 0.00063 μM. In a 384-well microplate, the test inhibitor was incubated with the metallo-β-lactamase enzyme and the substrate for 2 hours at 25° C. Fluorescence at 460 nm following excitation at 405 nm was measured. The IC50 value was determined from semi-logarithmic plots of enzyme inhibition versus inhibitor concentration, with a curve generated using a 4-parameter fit.

[5] = tested on: P. aeruginosa MB9798 (efflux WT, IMP-1); experiment: Efflux: concentration of MBL inhibitor restoring susceptibility to imipenem (MITC95), efflux+ strain; assay type: cell-based, Pseudomonas aeruginosa; settings: imipenem at 2 μg/mL in the presence of a class A, C, D serine β-lactamase inhibitor closely related to relebactam
Source text: as §4, §5, §6

VIM-1 = VIM-1 (Pseudomonas aeruginosa, UniProt A0A0F7KYQ8); experiment: Enzyme activity: determination of IC50, fluorescence assay with CCF2-FA substrate (VIM-1); assay type: biochemical; settings: 30 pM enzyme, 1.25 μM CCF2-FA, 2 hours at 25° C.; read-out: VIM1 IC50
Method: as §7

VIM-2 = VIM-2 (Escherichia coli, UniProt Q5U7L7); experiment: Enzyme activity: determination of IC50 (VIM-2); assay type: biochemical; settings: read-out: VIM2 IC50
IMP-1 = IMP-1 (Serratia marcescens, UniProt P52699); experiment: Enzyme activity: determination of IC50, fluorescence assay with CCF2-FA substrate (IMP-1); assay type: biochemical; settings: 2 pM enzyme, 1.25 μM CCF2-FA, 2 hours at 25° C.; read-out: IMP1 IC50
IMP-1, sequence (P52699 19-246, looked up, species assumed): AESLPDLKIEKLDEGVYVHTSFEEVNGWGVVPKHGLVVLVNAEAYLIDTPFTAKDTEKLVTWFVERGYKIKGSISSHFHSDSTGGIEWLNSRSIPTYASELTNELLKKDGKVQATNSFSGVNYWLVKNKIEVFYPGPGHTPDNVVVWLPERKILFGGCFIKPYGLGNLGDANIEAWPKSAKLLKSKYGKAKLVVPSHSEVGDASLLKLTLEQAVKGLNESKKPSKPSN
Method: as §7

Row | SMILES | CLB30016 E.coli MITC95 NDM [1] [µM] | IHMA599644 K.pneumoniae MITC95 uM VIM [2] [µM] | CL5741 S.marcescens MITC95 uM IMP [3] [µM] | MB9799 MITC95 P. aeruginosa Efflux Mutant [4] [µM] | IC50 (NDM-1) [nM] | MB9798 MITC95 P. aeruginosa Efflux WT [5] [µM] | IC50 (VIM-1) [nM] | IC50 (VIM-2) [nM] | IC50 (IMP-1) [nM]
1 | NS(=O)(=O)c1c(S(=O)(=O)N[C@@H]2CCNC2)ccc(N2CCn3ncnc3C2)c1-c1nn[nH]n1 [Example 1, (R)-4-(5,6-dihydro-[1,2,4]triazolo[1,5-a]pyrazin-7(8H)-yl)-N′-(pyrrolidin-3-yl)-3-(2H-tetrazol-5-yl)benzene-1,2-disulfonamide] | 3.13 | 6.25 | 1.56 | 1.56 | 1.57 | 6.25 | 0.29 | 0.99 | 4.03
2 | NS(=O)(=O)c1c(S(=O)(=O)N[C@@H]2CCNC2)ccc(N2CCn3cncc3C2)c1-c1nn[nH]n1 [Example 2, (R)-4-(5,6-dihydroimidazo[1,5-a]pyrazin-7(8H)-yl)-N^1-(pyrrolidin-3-yl)-3-(2H-tetrazol-5-yl)benzene-1,2-disulfonamide] | 0.20 | 1.56 | 0.78 | 0.78 | 0.3 | 3.13 | 0.16 | 0.68 | 2.01
3 | NC[C@@H](O)CNS(=O)(=O)c1ccc(N2CCc3nc(N)[nH]c3C2)c(-c2nn[nH]n2)c1S(N)(=O)=O [Example 3, (R)—N^1-(3-amino-2-hydroxypropyl)-4-(2-amino-3,4,6,7-tetrahydro-5H-imidazo[4,5-c]pyridin-5-yl)-3-(2H-tetrazol-5-yl)benzene-1,2-disulfonamide] | 0.78 | 6.25 | 3.13 | 1.56 | 2.23 | 6.25 | 22.6 | 72.8 | 5.72
4 | NS(=O)(=O)c1c(S(=O)(=O)N[C@@H]2CCNC2)ccc(N2CCn3nc(C(F)(F)F)nc3C2)c1-c1nn[nH]n1 [Example 4, (R)—N^1-(pyrrolidin-3-yl)-3-(2H-tetrazol-5-yl)-4-(2-(trifluoromethyl)-5,6-dihydro-[1,2,4]triazolo[1,5-a]pyrazin-7(8H)-yl)benzene-1,2-disulfonamide] | 3.13 | 6.25 | 6.25 | 3.13 | 2.25 | 25.00 | 0.35 | 0.48 | 2.18
5 | CCOC(=O)c1cn2c(n1)N(c1ccc(S(=O)(=O)N[C@@H]3CCNC3)c(S(N)(=O)=O)c1-c1nn[nH]n1)CCC2 [Example 5, ethyl (R)-8-(4-(N-(pyrrolidin-3-yl)sulfamoyl)-3-sulfamoyl-2-(2H-tetrazol-5-yl)phenyl)-5,6,7,8-tetrahydroimidazo[1,2-a]pyrimidine-2-carboxylate] | 12.50 | 12.50 | 6.25 | 3.13 | 0.04 | 6.25 | 0.12 | 0.55 | 0.96
6 | NS(=O)(=O)c1c(S(=O)(=O)N[C@@H]2CCNC2)ccc(N2CCCn3cnnc32)c1-c1nn[nH]n1 [Example 6, (R)-4-(6,7-dihydro-[1,2,4]triazolo[4,3-a]pyrimidin-8(5H)-yl)-N^1-(pyrrolidin-3-yl)-3-(2H-tetrazol-5-yl)benzene-1,2-disulfonamide] | 0.78 | 6.25 | 3.13 | 3.13 | 0.72 | 3.13 | 0.24 | 1.13 | 6.8
7 | NS(=O)(=O)c1c(S(=O)(=O)N[C@@H]2CCNC2)ccc(N2CCCn3nccc32)c1-c1nn[nH]n1 [Example 7, (R)-4-(6,7-dihydropyrazolo[1,5-a]pyrimidin-4(5H)-yl)-N^1-(pyrrolidin-3-yl)-3-(2H-tetrazol-5-yl)benzene-1,2-disulfonamide] | 6.25 | 6.25 | 3.13 | 1.56 | 0.14 | 3.13 | 0.13 | 0.66 | 2.81
